Assay results as given in publication PMC6349357, “Computational and experimental analysis of bioactive peptide linear motifs in the integrin adhesome” (PLoS ONE, 2019).
Marks after values point to notes of the source that are not given here.

Assays:
TRAP-activated platelets = assay: Inhibition of TRAP-induced platelet aggregation after pre-incubation with peptide; type: cell-based, human (healthy volunteers); conditions: for Aggregation (inhibition effects of syndecan-derived peptides): S2 Table A, n=6; for Summary of effects of SDC4-derived palmitylated peptides and scrambled controls, 20μM: S2 Table B / S2 Fig, activation of resting platelets and inhibition of aggregation induced by 4 μM TRAP, in words; for Aggregation after TRAP, peptide alone 1x (A 1x / B 1x) / Aggregation after TRAP, peptide alone 2x (A 2x / B 2x): TRAP 2 μM after 6 minutes pre-incubation, mean n = 3; for Aggregation after TRAP, peptide alone 1x (A 1x / B 1x): 4 μM pal-peptides, 10 μM tat-peptides; for Aggregation after TRAP, peptide alone 2x (A 2x / B 2x): double concentration of 4 μM (pal) / 10 μM (tat); for Inhibition, donor 14_06_13: replicate 14_06_13; for Inhibition, donor 18_06_13: replicate 18_06_13; for Inhibition, donor 20_06_13: replicate 20_06_13; for Inhibition, donor 20_08_13: replicate 20_08_13; for Aggregation after TRAP activation, donor h: replicate donor h; for Aggregation after TRAP activation, donor h / Aggregation after TRAP activation, donor i / Aggregation after TRAP activation, donor j: pal 20 μM, tat 50 μM; for Aggregation after TRAP activation, donor i: replicate donor i; for Aggregation after TRAP activation, donor j: replicate donor j
How it was run: (§1)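 Washed human platelets (from ACD blood, PGE1-treated) were used at 3x10^5/μl in buffer A pH 7.4 with 1.8 mM CaCl2. Light-transmission aggregometry ran at 37°C with stirring at 1100 rpm. Peptide or buffer was added at 2 min, TRAP 6 min later, and aggregation was recorded for a further 7 min.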

resting platelets = assay: Platelet aggregation induced by peptide in resting washed platelets (activation); type: cell-based, human (healthy volunteers); conditions: for Activation, 5μM / Activation, 20μM: S3 Table, n=3; for Activation, 5μM: peptide 5 μM; for Activation, 5μM / Activation, 20μM / Activation / Activation, donor 14 06 13 / Activation, donor 20 08 13: unit assumed; for Activation, 20μM: peptide 20 μM; for Activation: platelet aggregation in resting platelets after 6 minutes incubation with peptide, pal-peptides 20 μM, tat-peptides 50 μM, optical density, aggregometer, mean, n>=3; for Activation, donor 14 06 13: replicate 14_06_13; for Activation, donor 14 06 13 / Activation, donor 18_06_13 / Activation, donor 20_06_13 / Activation, donor 20 08 13 / Activation, donor 22_08_13_DONOR1 / Activation, donor 22_08_13_DONOR2: SDC4 peptides and controls, 20 μM; for Activation, donor 18_06_13: replicate 18_06_13; for Activation, donor 18_06_13 / Activation, donor 20_06_13: in % (unit assumed); for Activation, donor 20_06_13: replicate 20_06_13; for Activation, donor 20 08 13: replicate 20_08_13; for Activation, donor 22_08_13_DONOR1: replicate 22_08_13_DONOR1; for Activation, donor 22_08_13_DONOR2: replicate 22_08_13_DONOR2; for Aggregation before TRAP activation, donor h: replicate donor h; for Aggregation before TRAP activation, donor h / Aggregation before TRAP activation, donor i / Aggregation before TRAP activation, donor j: pal 20 μM, tat 50 μM; for Aggregation before TRAP activation, donor i: replicate donor i; for Aggregation before TRAP activation, donor j: replicate donor j
How it was run: as §1

[1] = platelet aggregation induced by 4 μM TRAP in platelets pre-incubated with peptide (low value = inhibition), pal-peptides 20 μM, tat-peptides 50 μM, mean, n>=3
[2] = replicate 22_08_13_DONOR1, peptide 20 μM, TRAP 4 μM
[3] = replicate 22_08_13_DONOR2, peptide 20 μM, TRAP 4 μM
[4] = S3 Table, peptide 5 μM, aggregation after TRAP, n=3
[5] = S3 Table, peptide 20 μM, aggregation after TRAP, n=3

Substance: pal-LGKKPIYKK-(NH2) [pal-SDC4_middle, N-terminally palmitylated syndecan-4 middle (variable) region peptide]
- Aggregation (inhibition effects of syndecan-derived peptides) (TRAP-activated platelets; peptide 20 μM, TRAP 4 μM, mean): 26
- Summary of effects of SDC4-derived palmitylated peptides and scrambled controls, 20μM (TRAP-activated platelets): Inhibitor
- Platelet aggregation remaining after TRAP (low = inhibition) (TRAP-activated platelets; S3 Table, peptide 5 μM, aggregation after TRAP, n=3, listed as A8p SDC4-middle): 72
- Platelet aggregation remaining after TRAP (low = inhibition) (TRAP-activated platelets; S3 Table, peptide 5 μM, aggregation after TRAP, n=3, listed as Variable (B)): 59
- Platelet aggregation remaining after TRAP (low = inhibition) (TRAP-activated platelets; S3 Table, peptide 20 μM, aggregation after TRAP, n=3, listed as A8p SDC4-middle): 41
- Platelet aggregation remaining after TRAP (low = inhibition) (TRAP-activated platelets; S3 Table, peptide 20 μM, aggregation after TRAP, n=3, listed as Variable (B)): 26
- Aggregation after TRAP, peptide alone 1x (A 1x / B 1x) (TRAP-activated platelets): 31.67
- Aggregation after TRAP, peptide alone 2x (A 2x / B 2x) (TRAP-activated platelets): 1.67
- Platelet aggregation after TRAP activation (TRAP-activated platelets; [1]): 3 ^*
- Inhibition, donor 14_06_13 (TRAP-activated platelets; peptide 20 μM, TRAP 4 μM): 60
- Inhibition, donor 18_06_13 (TRAP-activated platelets; peptide 20 μM, TRAP 4 μM): 23
- Inhibition, donor 20_06_13 (TRAP-activated platelets; peptide 20 μM, TRAP 4 μM): 51
- Inhibition, donor 20_08_13 (TRAP-activated platelets; peptide 20 μM, TRAP 4 μM): 7
- Platelet aggregation remaining after TRAP (low = inhibition) (TRAP-activated platelets; [2]): 3
- Platelet aggregation remaining after TRAP (low = inhibition) (TRAP-activated platelets; [3]): 14
- Aggregation after TRAP activation, donor h (TRAP-activated platelets; TRAP 4 μM): 3
- Aggregation after TRAP activation, donor i (TRAP-activated platelets; TRAP 4 μM): 2
- Aggregation after TRAP activation, donor j (TRAP-activated platelets; TRAP 4 μM): 4
- Activation, 5μM (resting platelets; listed as A8p SDC4-middle): 2%
- Activation, 5μM (resting platelets; listed as Variable (B)): 1%
- Activation, 20μM (resting platelets): 1%
- Activation (resting platelets): 0%
- Activation, donor 14 06 13 (resting platelets): 1%
- Activation, donor 18_06_13 (resting platelets): -1
- Activation, donor 20_06_13 (resting platelets): 2
- Activation, donor 20 08 13 (resting platelets): 0%
- Activation, donor 22_08_13_DONOR1 (resting platelets): 1
- Activation, donor 22_08_13_DONOR2 (resting platelets): 0
- Aggregation before TRAP activation, donor h (resting platelets): 1
- Aggregation before TRAP activation, donor i (resting platelets): 0
- Aggregation before TRAP activation, donor j (resting platelets): 1

Substance: pal-NNPLYKEA-(NH2) [pal-ITGB3_middle2, N-terminally palmitylated ITGB3 peptide NNPLYKEA]
- Platelet aggregation remaining after TRAP (low = inhibition) (TRAP-activated platelets; [1]): 74
- Aggregation after TRAP activation, donor h (TRAP-activated platelets; TRAP 4 μM): 74
- Aggregation after TRAP activation, donor i (TRAP-activated platelets; TRAP 4 μM): 71
- Aggregation after TRAP activation, donor j (TRAP-activated platelets; TRAP 4 μM): 78
- Activation (resting platelets): 1%
- Aggregation before TRAP activation, donor h (resting platelets): 2
- Aggregation before TRAP activation, donor i (resting platelets): 2
- Aggregation before TRAP activation, donor j (resting platelets): 1

Substance: pal-RMKKKDEGSYD-(NH2) [pal-SDC4_JM, N-terminally palmitylated syndecan-4 juxtamembrane peptide]
- Aggregation (inhibition effects of syndecan-derived peptides) (TRAP-activated platelets; peptide 20 μM, TRAP 4 μM, mean): 45
- Summary of effects of SDC4-derived palmitylated peptides and scrambled controls, 20μM (TRAP-activated platelets): Inhibitor
- Platelet aggregation remaining after TRAP (low = inhibition) (TRAP-activated platelets; S3 Table, peptide 5 μM, aggregation after TRAP, n=3, listed as A7p SDC4-JM): 75
- Platelet aggregation remaining after TRAP (low = inhibition) (TRAP-activated platelets; S3 Table, peptide 5 μM, aggregation after TRAP, n=3, listed as Juxtamembrane (A)): 64
- Platelet aggregation remaining after TRAP (low = inhibition) (TRAP-activated platelets; S3 Table, peptide 20 μM, aggregation after TRAP, n=3, listed as A7p SDC4-JM): 73
- Platelet aggregation remaining after TRAP (low = inhibition) (TRAP-activated platelets; S3 Table, peptide 20 μM, aggregation after TRAP, n=3, listed as Juxtamembrane (A)): 45
- Aggregation after TRAP, peptide alone 1x (A 1x / B 1x) (TRAP-activated platelets): 66.33
- Aggregation after TRAP, peptide alone 2x (A 2x / B 2x) (TRAP-activated platelets): 64.33
- Platelet aggregation after TRAP activation (TRAP-activated platelets; [1]): 4 ^*
- Inhibition, donor 14_06_13 (TRAP-activated platelets; peptide 20 μM, TRAP 4 μM): 72
- Inhibition, donor 18_06_13 (TRAP-activated platelets; peptide 20 μM, TRAP 4 μM): 56
- Inhibition, donor 20_06_13 (TRAP-activated platelets; peptide 20 μM, TRAP 4 μM): 74
- Inhibition, donor 20_08_13 (TRAP-activated platelets; peptide 20 μM, TRAP 4 μM): 7
- Platelet aggregation remaining after TRAP (low = inhibition) (TRAP-activated platelets; [2]): 3
- Platelet aggregation remaining after TRAP (low = inhibition) (TRAP-activated platelets; [3]): 58
- Aggregation after TRAP activation, donor h (TRAP-activated platelets; TRAP 4 μM): 4
- Aggregation after TRAP activation, donor i (TRAP-activated platelets; TRAP 4 μM): 3
- Aggregation after TRAP activation, donor j (TRAP-activated platelets; TRAP 4 μM): 5
- Activation, 5μM (resting platelets): 2%
- Activation, 20μM (resting platelets): 1%
- Activation (resting platelets): 0%
- Activation, donor 14 06 13 (resting platelets): 1%
- Activation, donor 18_06_13 (resting platelets): 1
- Activation, donor 20_06_13 (resting platelets): 2
- Activation, donor 20 08 13 (resting platelets): 1%
- Activation, donor 22_08_13_DONOR1 (resting platelets): 0
- Activation, donor 22_08_13_DONOR2 (resting platelets): 1
- Aggregation before TRAP activation, donor h (resting platelets): 1
- Aggregation before TRAP activation, donor i (resting platelets): 0
- Aggregation before TRAP activation, donor j (resting platelets): 2

Substance: pal-TLELDRLMASLS [B23p TGFB1I1-LD, palmitylated TGFB1I1 LD peptide]
- Platelet aggregation remaining after TRAP (low = inhibition) (TRAP-activated platelets; [4]): 73
- Platelet aggregation remaining after TRAP (low = inhibition) (TRAP-activated platelets; [5]): 70
- Activation, 5μM (resting platelets): 2%
- Activation, 20μM (resting platelets): 3%

Substance: pal-WEQLLTTIARTINEVENQI [B3p ACTN1-VBS]
- Platelet aggregation remaining after TRAP (low = inhibition) (TRAP-activated platelets; [4]): 76
- Platelet aggregation remaining after TRAP (low = inhibition) (TRAP-activated platelets; [5]): 73
- Activation, 5μM (resting platelets): 2%
- Activation, 20μM (resting platelets): 1%

Substance: tat-AGAKLRKVSKQE-(NH2) [tat-VASP, tat peptide from VASP]
- Platelet aggregation remaining after TRAP (low = inhibition) (TRAP-activated platelets; [1]): 74
- Aggregation after TRAP activation, donor h (TRAP-activated platelets; TRAP 4 μM): 75
- Aggregation after TRAP activation, donor i (TRAP-activated platelets; TRAP 4 μM): 71
- Aggregation after TRAP activation, donor j (TRAP-activated platelets; TRAP 4 μM): 76
- Activation (resting platelets): 3%
- Aggregation before TRAP activation, donor h (resting platelets): 3
- Aggregation before TRAP activation, donor i (resting platelets): 3
- Aggregation before TRAP activation, donor j (resting platelets): 3

Substance: tat-EGERALPSIPKLAN-(NH2) [tat-FAK_1, tat peptide from PTK2/FAK1]
- Platelet aggregation remaining after TRAP (low = inhibition) (TRAP-activated platelets; [1]): 72
- Aggregation after TRAP activation, donor h (TRAP-activated platelets; TRAP 4 μM): 76
- Aggregation after TRAP activation, donor i (TRAP-activated platelets; TRAP 4 μM): 66
- Aggregation after TRAP activation, donor j (TRAP-activated platelets; TRAP 4 μM): 74
- Activation (resting platelets): 4%
- Aggregation before TRAP activation, donor h (resting platelets): 4
- Aggregation before TRAP activation, donor i (resting platelets): 4
- Aggregation before TRAP activation, donor j (resting platelets): 4

Substance: tat-EPDFPPPPPDLE-(NH2) [tat-VCL, tat peptide from VCL]
- Platelet aggregation remaining after TRAP (low = inhibition) (TRAP-activated platelets; [1]): 70
- Aggregation after TRAP activation, donor h (TRAP-activated platelets; TRAP 4 μM): 68
- Aggregation after TRAP activation, donor i (TRAP-activated platelets; TRAP 4 μM): 67
- Aggregation after TRAP activation, donor j (TRAP-activated platelets; TRAP 4 μM): 77
- Activation (resting platelets): 4%
- Aggregation before TRAP activation, donor h (resting platelets): 4
- Aggregation before TRAP activation, donor i (resting platelets): 4
- Aggregation before TRAP activation, donor j (resting platelets): 4

Substance: tat-GRDKYKTLRQIRQGNTKQRIDEFESM [tat-MSN, tat peptide from MSN]
- Platelet aggregation remaining after TRAP (low = inhibition) (TRAP-activated platelets; [1]): 73
- Aggregation after TRAP activation, donor h (TRAP-activated platelets; TRAP 4 μM): 76
- Aggregation after TRAP activation, donor i (TRAP-activated platelets; TRAP 4 μM): 68
- Aggregation after TRAP activation, donor j (TRAP-activated platelets; TRAP 4 μM): 75
- Activation (resting platelets): 3%
- Aggregation before TRAP activation, donor h (resting platelets): 3
- Aggregation before TRAP activation, donor i (resting platelets): 3
- Aggregation before TRAP activation, donor j (resting platelets): 4

Substance: tat-KRAPQMDWSKKNELFSNL [tat-NHERF1, tat peptide from NHERF1]
- Platelet aggregation remaining after TRAP (low = inhibition) (TRAP-activated platelets; [1]): 70
- Aggregation after TRAP activation, donor h (TRAP-activated platelets; TRAP 4 μM): 71
- Aggregation after TRAP activation, donor i (TRAP-activated platelets; TRAP 4 μM): 66
- Aggregation after TRAP activation, donor j (TRAP-activated platelets; TRAP 4 μM): 75
- Activation (resting platelets): 3%
- Aggregation before TRAP activation, donor h (resting platelets): 4
- Aggregation before TRAP activation, donor i (resting platelets): 3
- Aggregation before TRAP activation, donor j (resting platelets): 3
